{"source": "ChEMBL document CHEMBL5252584", "about": "“Design, synthesis and anti-Chikungunya virus activity of lomerizine derivatives” (Bioorg Med Chem Lett, 2023)", "key": {"[1]": {"assay": "Cytotoxicity against human Huh-7 cells assessed as reduction in cell viability by CCK8 assay relative to control", "assay_type": "toxicity, cell-based"}, "Chikungunya virus [2]": {"system": "Chikungunya virus", "assay": "Antiviral activity against CHIKV infected in human Huh-7 cells assessed as inhibition of viral growth incubated for 12 hrs", "assay_type": "functional, organism-based", "conditions": "Huh-7, 12 h"}, "[3]": {"assay": "Selectivity index, ratio of CC50 for cytotoxicity against human Huh-7 cells to IC50 for antiviral activity against CHIKV infected in human Huh-7 cells", "assay_type": "toxicity, cell-based", "conditions": "read-out: Ratio CC50/IC50"}, "Chikungunya virus [4]": {"system": "Chikungunya virus", "assay": "Antiviral activity against CHIKV infected in human Huh-7 cells assessed as inhibition of viral growth at 2.5 uM incubated for 12 hrs relative to control", "assay_type": "functional"}, "Chikungunya virus [5]": {"system": "Chikungunya virus", "assay": "Antiviral activity against CHIKV infected in human Huh-7 cells assessed as inhibition of viral growth at 5 uM incubated for 12 hrs relative to control", "assay_type": "functional"}, "Chikungunya virus [6]": {"system": "Chikungunya virus", "assay": "Antiviral activity against CHIKV infected in human Huh-7 cells assessed as inhibition of viral growth at 10 uM incubated for 12 hrs relative to control", "assay_type": "functional", "design": "scale not given: the % may be the effect or the level left"}, "Huh-7": {"system": "Huh-7", "assay": "Cytotoxicity against human Huh-7 cells assessed as reduction in cell viability at 5 uM by CCK8 assay relative to control", "assay_type": "toxicity, cell-based", "conditions": "huh-7, 5 µM"}}, "data": [{"smiles": "COc1ccc(CN2CCN(C(c3ccc(F)cc3)c3ccc(F)cc3)CC2)c(OC)c1OC", "note": "[LOMERIZINE]", "values": [{"measurement": "CC50", "setting": "[1]", "result": "> 100", "unit": "µM"}, {"measurement": "IC50", "setting": "Chikungunya virus [2]", "result": 4.02, "unit": "µM"}, {"measurement": "selectivity ratio", "setting": "[3]", "result": "> 24.9"}]}, {"smiles": "O=C(/C=C/c1ccccc1F)N1CCN(C(c2ccc(F)cc2)c2ccc(F)cc2)CC1", "values": [{"measurement": "CC50", "setting": "[1]", "result": 31.7, "unit": "µM"}, {"measurement": "inhibition at 2.5 µM", "setting": "Chikungunya virus [4]", "result": 74.2, "unit": "%"}, {"measurement": "inhibition at 5 µM", "setting": "Chikungunya virus [5]", "result": 92.8, "unit": "%"}, {"measurement": "Activity", "setting": "Chikungunya virus [6]", "result": 95.8, "unit": "%"}, {"measurement": "IC50", "setting": "Chikungunya virus [2]", "result": 0.61, "unit": "µM"}, {"measurement": "selectivity ratio", "setting": "[3]", "result": 51.9}, {"measurement": "cell viability", "setting": "Huh-7", "result": "> 80", "unit": "%"}]}, {"smiles": "O=C(/C=C/c1cccc(F)c1)N1CCN(C(c2ccc(F)cc2)c2ccc(F)cc2)CC1", "values": [{"measurement": "CC50", "setting": "[1]", "result": 22.9, "unit": "µM"}, {"measurement": "inhibition at 2.5 µM", "setting": "Chikungunya virus [4]", "result": 59.6, "unit": "%"}, {"measurement": "inhibition at 5 µM", "setting": "Chikungunya virus [5]", "result": 78.9, "unit": "%"}, {"measurement": "Activity", "setting": "Chikungunya virus [6]", "result": 85.8, "unit": "%"}, {"measurement": "IC50", "setting": "Chikungunya virus [2]", "result": 2.06, "unit": "µM"}, {"measurement": "selectivity ratio", "setting": "[3]", "result": 11.1}, {"measurement": "cell viability", "setting": "Huh-7", "result": "> 80", "unit": "%"}]}, {"smiles": "O=C(/C=C/c1ccccc1F)N1CCN(C(c2ccccc2)c2ccccc2)CC1", "values": [{"measurement": "CC50", "setting": "[1]", "result": 34.2, "unit": "µM"}, {"measurement": "inhibition at 2.5 µM", "setting": "Chikungunya virus [4]", "result": 17.9, "unit": "%"}, {"measurement": "inhibition at 5 µM", "setting": "Chikungunya virus [5]", "result": 62.1, "unit": "%"}, {"measurement": "Activity", "setting": "Chikungunya virus [6]", "result": 77.6, "unit": "%"}, {"measurement": "IC50", "setting": "Chikungunya virus [2]", "result": 4.5, "unit": "µM"}, {"measurement": "selectivity ratio", "setting": "[3]", "result": 7.6}, {"measurement": "cell viability", "setting": "Huh-7", "result": "> 80", "unit": "%"}]}, {"smiles": "O=c1cc(-c2ccccc2)oc2cc(O)c(O)c(O)c12", "note": "[BAICALEIN]", "values": [{"measurement": "CC50", "setting": "[1]", "result": "> 100", "unit": "µM"}, {"measurement": "IC50", "setting": "Chikungunya virus [2]", "result": 16.9, "unit": "µM"}, {"measurement": "selectivity ratio", "setting": "[3]", "result": "> 6"}]}, {"smiles": "O=C(/C=C/c1ccc2c(c1)OCO2)N1CCN(C(c2ccccc2)c2ccc(Cl)cc2)CC1", "note": "(stereo not given)", "values": [{"measurement": "CC50", "setting": "[1]", "result": 31.4, "unit": "µM"}, {"measurement": "inhibition at 2.5 µM", "setting": "Chikungunya virus [4]", "result": 13.2, "unit": "%"}, {"measurement": "inhibition at 5 µM", "setting": "Chikungunya virus [5]", "result": 52.3, "unit": "%"}, {"measurement": "Activity", "setting": "Chikungunya virus [6]", "result": 86.5, "unit": "%"}, {"measurement": "IC50", "setting": "Chikungunya virus [2]", "result": 4.83, "unit": "µM"}, {"measurement": "selectivity ratio", "setting": "[3]", "result": 6.5}, {"measurement": "cell viability", "setting": "Huh-7", "result": "> 80", "unit": "%"}]}, {"smiles": "O=C(/C=C/c1ccc(F)cc1)N1CCN(C(c2ccc(F)cc2)c2ccc(F)cc2)CC1", "values": [{"measurement": "inhibition at 2.5 µM", "setting": "Chikungunya virus [4]", "result": 9.7, "unit": "%"}, {"measurement": "inhibition at 5 µM", "setting": "Chikungunya virus [5]", "result": 19.6, "unit": "%"}, {"measurement": "Activity", "setting": "Chikungunya virus [6]", "result": 55.2, "unit": "%"}, {"measurement": "cell viability", "setting": "Huh-7", "result": "> 80", "unit": "%"}]}, {"smiles": "Cc1ccc(/C=C/C(=O)N2CCN(C(c3ccccc3)c3ccc(Cl)cc3)CC2)cc1", "note": "(stereo not given)", "values": [{"measurement": "inhibition at 2.5 µM", "setting": "Chikungunya virus [4]", "result": 13.4, "unit": "%"}, {"measurement": "inhibition at 5 µM", "setting": "Chikungunya virus [5]", "result": 29.7, "unit": "%"}, {"measurement": "Activity", "setting": "Chikungunya virus [6]", "result": 56.3, "unit": "%"}, {"measurement": "cell viability", "setting": "Huh-7", "result": "> 80", "unit": "%"}]}, {"smiles": "O=C(/C=C/c1ccncc1)N1CCN(C(c2ccc(F)cc2)c2ccc(F)cc2)CC1", "values": [{"measurement": "CC50", "setting": "[1]", "result": 31.3, "unit": "µM"}, {"measurement": "inhibition at 2.5 µM", "setting": "Chikungunya virus [4]", "result": 58.1, "unit": "%"}, {"measurement": "inhibition at 5 µM", "setting": "Chikungunya virus [5]", "result": 90.7, "unit": "%"}, {"measurement": "Activity", "setting": "Chikungunya virus [6]", "result": 95.3, "unit": "%"}, {"measurement": "IC50", "setting": "Chikungunya virus [2]", "result": 2.35, "unit": "µM"}, {"measurement": "selectivity ratio", "setting": "[3]", "result": 13.3}, {"measurement": "cell viability", "setting": "Huh-7", "result": "> 80", "unit": "%"}]}, {"smiles": "O=C(/C=C/c1ccc(O)c(O)c1)N1CCN(C(c2ccc(F)cc2)c2ccc(F)cc2)CC1", "values": [{"measurement": "inhibition at 2.5 µM", "setting": "Chikungunya virus [4]", "result": 20.1, "unit": "%"}, {"measurement": "inhibition at 5 µM", "setting": "Chikungunya virus [5]", "result": 43.9, "unit": "%"}, {"measurement": "Activity", "setting": "Chikungunya virus [6]", "result": 96.3, "unit": "%"}, {"measurement": "cell viability", "setting": "Huh-7", "result": "> 80", "unit": "%"}]}, {"smiles": "O=C(/C=C/c1ccc2c(c1)OCO2)N1CCN(C(c2ccc(F)cc2)c2ccc(F)cc2)CC1", "values": [{"measurement": "CC50", "setting": "[1]", "result": 29.7, "unit": "µM"}, {"measurement": "inhibition at 2.5 µM", "setting": "Chikungunya virus [4]", "result": 86.9, "unit": "%"}, {"measurement": "inhibition at 5 µM", "setting": "Chikungunya virus [5]", "result": 93.1, "unit": "%"}, {"measurement": "Activity", "setting": "Chikungunya virus [6]", "result": 97.4, "unit": "%"}, {"measurement": "IC50", "setting": "Chikungunya virus [2]", "result": 0.45, "unit": "µM"}, {"measurement": "selectivity ratio", "setting": "[3]", "result": 66}, {"measurement": "cell viability", "setting": "Huh-7", "result": "> 80", "unit": "%"}]}, {"smiles": "Cc1ccc(/C=C/C(=O)N2CCN(C(c3ccc(F)cc3)c3ccc(F)cc3)CC2)cc1", "values": [{"measurement": "inhibition at 2.5 µM", "setting": "Chikungunya virus [4]", "result": 21.3, "unit": "%"}, {"measurement": "inhibition at 5 µM", "setting": "Chikungunya virus [5]", "result": 32.8, "unit": "%"}, {"measurement": "Activity", "setting": "Chikungunya virus [6]", "result": 84.3, "unit": "%"}, {"measurement": "cell viability", "setting": "Huh-7", "result": "> 80", "unit": "%"}]}, {"smiles": "O=C(/C=C/c1cccnc1)N1CCN(C(c2ccc(F)cc2)c2ccc(F)cc2)CC1", "values": [{"measurement": "CC50", "setting": "[1]", "result": 20.9, "unit": "µM"}, {"measurement": "inhibition at 2.5 µM", "setting": "Chikungunya virus [4]", "result": 53.8, "unit": "%"}, {"measurement": "inhibition at 5 µM", "setting": "Chikungunya virus [5]", "result": 54.4, "unit": "%"}, {"measurement": "Activity", "setting": "Chikungunya virus [6]", "result": 76.5, "unit": "%"}, {"measurement": "IC50", "setting": "Chikungunya virus [2]", "result": 1.61, "unit": "µM"}, {"measurement": "selectivity ratio", "setting": "[3]", "result": 13}, {"measurement": "cell viability", "setting": "Huh-7", "result": "> 80", "unit": "%"}]}, {"smiles": "O=C(/C=C/c1ccc(O)c(O)c1)N1CCN(C(c2ccccc2)c2ccc(Cl)cc2)CC1", "note": "(stereo not given)", "values": [{"measurement": "inhibition at 2.5 µM", "setting": "Chikungunya virus [4]", "result": 20.2, "unit": "%"}, {"measurement": "inhibition at 5 µM", "setting": "Chikungunya virus [5]", "result": 34.7, "unit": "%"}, {"measurement": "Activity", "setting": "Chikungunya virus [6]", "result": 74.4, "unit": "%"}, {"measurement": "cell viability", "setting": "Huh-7", "result": "> 80", "unit": "%"}]}]}
